Values of other authors as cited in US7750039B2, “Indoles are cannabinoid receptor ligands” (priority 2004, dated 2010).

Key:
animal models of pain = settings: acute thermal pain, persistent pain, inflammatory pain, neuropathic pain
[1] = test system: CB1 receptor-mediated CNS side effects; settings: at fully efficacious doses
[2] = test system: CB1 receptor knockout mice
[3] = test system: CB2 receptor knockout mice
[4] = test system: apolipoprotein E knockout mice; settings: low doses, inhibited by SR144528
[5] = test system: ovariectomy-induced bone loss in mice; settings: model for post-menopausal osteoporosis
microglial = settings: in vitro; blocked by SR144528
[6] = test system: rat formalin model of persistent pain
rodent models of pain = settings: neuropathic, incisional, chronic and acute inflammatory pain

For `CN1CCCCC1Cn1cc(C(=O)c2cc([N+](=O)[O-])ccc2I)c2ccccc21` (centres unmarked) [AM-1241], the analgesic efficacy (animal models of pain) is given as “robust analgesic efficacy” and the “CB1 receptor-mediated CNS side effects” value [1] is given as “devoid of typical CB1 receptor-mediated CNS side effects”.

In the case of (−)-Δ^9-Tetrahydrocannabinol [Δ^9-THC], the analgesic efficacy [2] is listed as “retains some analgesic efficacy”, the immunosuppressive effects [3] is listed as “absent” and the “progression of atherosclerotic lesions” value [4] is listed as “slowed the progression of atherosclerotic lesions”.

In the case of SR144528, the osteoclast activity (osteoclast) is listed as “inhibit osteoclast activity” and the ovariectomy-induced bone loss [5] is listed as “reverse ovariectomy-induced bone loss”.

For `CCCC(C)(C)c1ccc2c(c1)OC(C)(C)[C@@H]1CC=C(C)C[C@@H]21` [JWH-133], the “β-amyloid-induced microglial activation and neurotoxicity” value (microglial) is listed as “abrogated”.

For `CCCCCCC(C)(C)c1cc(OC)c([C@@H]2C=C(CO)[C@@H]3C[C@H]2C3(C)C)c(OC)c1` [HU-308], the antinociceptive response [6] is given as “elicits an antinociceptive response”.

For `COc1ccc2c(c1)c(CCN1CCOCC1)c(C)n2C(=O)c1cccc(Cl)c1Cl` [GW405833], the “efficacy in pain models” value (rodent models of pain) is given as “efficacious” and the “CB1 receptor-mediated CNS side effects” value [1] is given as “devoid of typical CB1 receptor-mediated CNS side effects”.
